# Patent EP0045990A1, “Novel antibacterial and antiprotozoal derivatives, a process for the preparation thereof, and related pharmaceutical compositions” (Farmatis S.r.l., priority 1980, dated 1982)
# Columns and labels:
# Trichomonas Vaginalis = format: in vivo, humans
# Procedure: The clinical investigation involved 42 patients, aged from 22 to 55, affected by vaginitis induced by Trichomonas Vaginalis.
# The diagnosis was determined through bacterioscopic, cultural and May-Grunwald Giemsa examinations, which were repeated 3 days after the end of the treatment. The 42 Patients were splitted into 6 groups of 7 patients each.
# [1] = solubility in solvents and water; format: physicochemical
# Procedure: According to the present invention there is provided a compound of formula (I) in which R1 is -OCH3 and R is CH3, which is a crystalline yellow compound, which decomposes upon heating to 170°C, is soluble (1 : 100) in methanol and (1 : 30) in dimethylformamide, but insoluble in water.
# [2] = half-life in animal (dog) and in man; conditions: in vivo
# [3] = test system: hepatic glutatione-S-transferase; assay: activity of hepatic glutathione-S-transferase
# [4] = treated orally (1st, 2nd, 3rd, 4th groups)
Compound,"complete recovery (Trichomonas Vaginalis; 5th group, treated only locally) [%]","Trichomonas vaqinalis disappeared, number of patients (Trichomonas Vaginalis; 5th group, treated only locally, 3 vaginal tablets of 200 mg per day for 5 days)","positive results (Trichomonas Vaginalis; 6th group, treated both orally and locally) [%]",activity against Trichomoniasis (Trichomonas Vaginalis; 42 patients),"tolerance in patients (Trichomonas Vaginalis; human, in vivo, po)",complete success (Trichomonas Vaginalis; [4]) [%],"complete success, number of patients (Trichomonas Vaginalis; [4])",solubility in water [1],half-life [2] [h],activity of the hepatic glutatione-S-transferase [3]
COc1ccc(OC(=O)CCC(=O)Nc2nccc(C=Cc3ncc([N+](=O)[O-])n3C)n2)c(C(C)(C)C)c1 [p-methoxy-o-tert-butyl-phenol ester of 5-nitro-imidazolyl-2-ethenyl-(2-amino-pyrimidyl)-N-succinic acid],85,6 out of 7 patients,100,highly active,well tolerated,98,25 patiens out of 28,insoluble,,
"Cc1ncc([N+](=O)[O-])n1CCO [metronidazole, 1-(2-hydroxyethyl)-2-methyl-5-nitro-imidazole]",,,,,,,,,7.3,does not exert this action
